In this experiment the target is T1, SARM1 (Homo sapiens, UniProt Q6SZW1).
T1 construct: made in house; host or cells: NRK1-HEK293T cells, transiently transfected; clarified lysate used unpurified
T1 sequence (Q6SZW1 with tags, fused parts or gaps): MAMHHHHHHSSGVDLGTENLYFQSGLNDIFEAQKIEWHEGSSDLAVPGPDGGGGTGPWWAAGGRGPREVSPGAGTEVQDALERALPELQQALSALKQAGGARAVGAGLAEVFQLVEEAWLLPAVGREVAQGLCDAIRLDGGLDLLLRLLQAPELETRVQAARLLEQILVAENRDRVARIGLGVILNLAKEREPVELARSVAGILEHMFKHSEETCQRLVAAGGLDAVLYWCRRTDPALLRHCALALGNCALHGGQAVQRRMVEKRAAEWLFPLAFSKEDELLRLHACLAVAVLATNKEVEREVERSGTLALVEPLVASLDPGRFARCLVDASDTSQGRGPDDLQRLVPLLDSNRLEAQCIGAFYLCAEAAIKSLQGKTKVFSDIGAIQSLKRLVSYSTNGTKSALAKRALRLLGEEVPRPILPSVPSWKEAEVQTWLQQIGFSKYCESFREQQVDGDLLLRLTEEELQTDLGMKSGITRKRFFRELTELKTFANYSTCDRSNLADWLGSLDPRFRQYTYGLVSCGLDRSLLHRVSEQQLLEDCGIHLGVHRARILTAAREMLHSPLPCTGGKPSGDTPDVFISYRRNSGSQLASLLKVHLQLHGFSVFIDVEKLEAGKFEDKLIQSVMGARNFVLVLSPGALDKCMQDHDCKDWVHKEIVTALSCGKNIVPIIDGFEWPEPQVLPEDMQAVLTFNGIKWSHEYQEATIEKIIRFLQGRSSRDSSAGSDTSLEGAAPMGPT
Kind of experiment: ARM-SAM-TIR SARM1 IC50 assay (NADase activity, NAD+ cleavage). It counts as biochemical. The protocol: This Example describes an assay of ARM-SAM-TIR NADase activity and use of this assay to measure the efficacy of compounds of Formula I to block SARM1 mediated NAD+ cleavage. This assay is optimized in such a way as to characterize the efficacy of the compounds in Formula I to inhibit SARM1 activity and to calculate an IC50 value for each compound. This assay makes use of full length SARM1, which encompasses the ARM, SAM and TIR domains.
NRK1-HEK293T cells were seeded onto 150 cm^2 plates at 20×10^6 cells per plate. The next day, the cells were transfected with 15 μg ARM-SAM-TIR expression plasmid, SEQ ID NO: 1.
The cultures were supplemented with 1 mM NR at time of transfection to minimize toxicity from ARM-SAM-TIR overexpression. Forty-eight hours after transfection, cells were harvested, pelleted by centrifugation at 1,000 rpm (Sorvall ST 16R centrifuge, Thermo Fisher), and washed once with cold PBS (0.01 M phosphate buffered saline NaCl 0.138 M; KCl 0.0027 M; pH 7.4). The cells were resuspended in PBS with protease inhibitors (cOmplete™ protease inhibitor cocktail, Roche product #11873580001) and cell lysates were prepared by sonication (Branson Sonifer 450, output=3, 20 episodes of stroke). The lysates were centrifuged (12,000×g for 10 min at 4° C.) to remove cell debris and the supernatants (containing ARM-SAM-TIR protein) were stored at −80° C. for later use in the in vitro ARM-SAM-TIR NADase assay (see below). Protein concentration was determined by the Bicinchoninic (BCA) method and used to normalize lysate concentrations.
The enzymatic assay was performed in a 384-well polypropylene plate in Dulbecco's PBS buffer in a final assay volume of 20 μL. ARM-SAM-TIR lysate with a final concentration of 5 μg/mL was pre-incubated with the respective compound at 1% DMSO final assay concentration over 2 h at room temperature. The reaction was initiated by addition of 5 μM final assay concentration of NAD+ as substrate. After a 2 hr room temperature incubation, the reaction was terminated with 40 μL of stop solution of 7.5% trichloroacetic acid in acetonitrile. The NAD+ and ADPR concentrations were analyzed by a RapidFire High Throughput Mass Spectrometry System (Agilent Technologies, Santa Clara, Calif.) using an API4000 triple quadrupole mass spectrometer (AB Sciex Framingham, Mass.).

[1] abbreviates: ARM-SAM-TIR lysate 5 μg/mL from NRK1-HEK293T cells, 2 h pre-incubation, 5 μM NAD+, 2 hr room temperature, NAD+ and ADPR by RapidFire MS, read-out: SARM1 IC50.

Read-outs that look alike come from different tables or passages of the source.

On to `COc1cncc(NCc2ccc(C#N)cc2)n1` [Example 129], for which, under setting [1], the IC50 (in general, the concentration needed to halve the response being measured) was in the range of 5 to 15 µM.
On the same count and under the same terms, under `COc1cncc(NCc2cnc(C)s2)n1` [Example 70] stands 5 to 15 µM; under `COc1cncc(NCc2ccc(N3CCC(F)(F)CC3)nc2)n1` [Example 130], 5 to 15 µM.
Still for that read-out and setting: to `Brc1cncc(CCc2ccccc2)n1` [Example 72] belongs over 30 µM; to `COc1cncc(NCc2cc(C)no2)n1` [Example 56], 5 to 15 µM; to `COc1cncc(NC(=O)c2cccnc2)c1` [Example 111], over 30 µM.
As for `COc1cc(NCc2cccnc2)n[nH]c1=O` [Example 140], under setting [1], the IC50 lay within 15 to 30 µM.
Same read-out and setting: to `COc1cncc(NCc2cccc(Br)c2)n1` [Example 109] belongs 5 to 15 µM; to `COc1cc(NCc2cccnc2)cnn1` [Example 95], over 30 µM.
Regarding `CNc1cncc(OC)c1` [Example 171], the IC50 under setting [1] was in the range of 5 to 15 µM.
Same read-out and setting: to `COc1cncc(NCc2ccc(-c3ccccc3)nc2)n1` [Example 142] belongs 5 to 15 µM; to `CNc1cncc(NCCc2cnn(C)c2)n1` [Example 167], 15 to 30 µM.
As for `COc1cncc(NCc2ccc(NS(C)(=O)=O)nc2)n1` [Example 133], the IC50 under setting [1] lay in the range of 5 to 15 µM.
The same measure, in the same setting: under `COc1cncc(NCc2ccc(F)cc2)n1` [Example 86] stands 5 to 15 µM; under `COc1ccc(CNc2cncc(OC)n2)cc1` [Example 38], 5 to 15 µM.
Still for that read-out and setting: under `COc1cncc(NC(=O)c2ccc3ccccc3n2)n1` [Example 23] stands 5 to 15 µM; under `COc1cncc(NCc2ccccc2F)n1` [Example 85], 5 to 15 µM; under `COc1cncc(NCc2cn[nH]c2)n1` [Example 20], 5 to 15 µM.
The same measure, in the same setting: under `CCOc1cncc(OCc2cccnc2)n1` [Example 190] stands over 30 µM; under `Cn1cc(CNc2cncc(C#N)n2)cn1` [Example 75], over 30 µM.
On to `CCN1CCN(c2ccc(CNc3cnccn3)cn2)CC1` [Example 178], for which the IC50 under setting [1] is over 30 µM.
The same measure, in the same setting: to `CCOc1cncc(NCc2ccc(N3CCN(CC)CC3)cc2)n1` [Example 7] belongs 5 to 15 µM.
On the same count and under the same terms, under `CCOc1cncc(NC(C)c2ccccn2)n1` (centres unmarked) [Example 184] stands over 30 µM.
Still for that read-out and setting: to `COc1cncc(NCc2cnn3cccnc23)n1` [Example 89] belongs 15 to 30 µM; to `CN(C)C(=O)c1cncc(NCc2cccnc2)n1` [Example 213], over 30 µM.
As for `COc1cncc(NCc2cccn2C)n1` [Example 59], under setting [1], the IC50 fell in the range of 15 to 30 µM.
As to `CNC(=O)c1cncc(NCc2cccnc2)n1` [Example 139], under setting [1], the IC50 was 5 to 15 µM.
Still for that read-out and setting: to `COc1cncc(NCC2CCCOC2)n1` (centres unmarked) [Example 210] belongs over 30 µM.
`COc1cncc(NCc2cncnc2)n1` [Example 22] showed an IC50 of 5 to 15 µM.
Consider `COc1cncc(NCc2ccc(S(=O)(=O)N(C)C)cc2)n1` [Example 156], for which the IC50 under setting [1] was 15 to 30 µM.
On the same count and under the same terms, to `COc1cncc(NCc2ccc(C(N)=O)cc2)n1` [Example 64] belongs 5 to 15 µM.
Take `CCCc1cncc(NCc2cccnc2)n1` [Example 200]: the IC50 under setting [1] is over 30 µM.
On the same count and under the same terms, to `COc1cncc(C(=O)NCc2ccccc2)n1` [Example 196] belongs over 30 µM.
On the same count and under the same terms, to `Cn1cc(CNc2cncc(OCCC3CCCO3)n2)cn1` (centres unmarked) [Example 177] belongs over 30 µM; to `CNC(=O)c1cncc(NC)n1` [Example 164], over 30 µM.

The values above are taken from patent publication US12595252B2, “Inhibitors of SARM1” (DISARM THERAPEUTICS, INC., priority 2019, dated 2026).
